Drawing on PubChem BioAssay (NCI), this text covers TGI for 9 compounds.

Test systems include SF-539 CNS; MDA-MB-231 breast; HCC-2998 colon; CAKI-1 renal; HCT-15 colon; MCF7 breast; NCI-H522 lung; UACC-257 melanoma; EKVX NSCLC; OVCAR-5 ovarian; RPMI-8226 leukemia; 786-0 renal; LOX IMVI melanoma; NCI-H460 lung; DU-145 prostate; SK-MEL-2 melanoma; UACC-62 melanoma; HL-60(TB) leukemia.
Assay in all cases: NCI tumour cell line growth inhibition, 48 h

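In this assay, cells in 96-well plates receive the compound at five concentrations for 48 hours. Endpoints are linearly interpolated between the surrounding concentrations. TGI marks complete inhibition of growth.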

Regarding `C/C(=N/NC(=S)Nc1ccccc1C)c1ccccn1`, the TGI in the assay on SF-539 CNS came out at 8.15 µM; in the assay on MDA-MB-231 breast, 14.9 µM; with HCC-2998 colon it was 26 µM; in the assay with CAKI-1 renal it was 19.5 µM; in the assay with HCT-15 colon, 18.3 µM; in the assay on MCF7 breast it was 12.8 µM. Also, the TGI in the assay with NCI-H522 lung is 12.9 µM; in the assay on UACC-257 melanoma, 1.88 µM; in the assay with EKVX NSCLC it was 6.46 µM; with OVCAR-5 ovarian, 10.7 µM; with RPMI-8226 leukemia, over 55.8 µM; with 786-0 renal, 18 µM. In addition, the TGI in the assay with LOX IMVI melanoma worked out at 15.7 µM; with NCI-H460 lung, 7.61 µM; with DU-145 prostate it was 11.3 µM; with SK-MEL-2 melanoma, 12.8 µM; with UACC-62 melanoma, 5.99 µM.

On to `CC(=O)OCC(OC(C)=O)C(OC(C)=O)C(/C=N\Nc1nc2ccccc2c(=O)[nH]1)OC(C)=O` (stereo unspecified), for which the TGI in the assay on SF-539 CNS, in the assay on MDA-MB-231 breast, in the assay on CAKI-1 renal, with HCT-15 colon, in the assay on MCF7 breast and in the assay with UACC-257 melanoma was over 100 µM in each case. Also, the TGI with HL-60(TB) leukemia, with EKVX NSCLC, in the assay on OVCAR-5 ovarian, in the assay on RPMI-8226 leukemia, in the assay with 786-0 renal and in the assay with LOX IMVI melanoma was over 100 µM each time. Besides, the TGI in the assay with NCI-H460 lung, with DU-145 prostate, in the assay with SK-MEL-2 melanoma and in the assay on UACC-62 melanoma was over 100 µM each time.

Consider `Cc1cc(N(C)C)ccc1N=Nc1ccc2ncccc2c1`, for which the TGI in the assay with SF-539 CNS was over 100 µM; with MDA-MB-231 breast it was over 100 µM; with CAKI-1 renal it was over 100 µM; in the assay with HCT-15 colon, over 100 µM; in the assay on MCF7 breast it was over 100 µM; in the assay on NCI-H522 lung it was 62.8 µM. The TGI with UACC-257 melanoma, in the assay on HL-60(TB) leukemia, with EKVX NSCLC, with OVCAR-5 ovarian, with RPMI-8226 leukemia and with 786-0 renal was over 100 µM each time. In addition, the TGI in the assay with NCI-H460 lung, in the assay with DU-145 prostate, in the assay on SK-MEL-2 melanoma and in the assay on UACC-62 melanoma was over 100 µM throughout.

In the case of `COc1cc(S(=O)(=O)Nc2ccc(-c3csc(/N=C\c4ccccc4O)n3)cc2)ccc1Cl`, the TGI was over 100 µM in the assay on SF-539 CNS; over 100 µM in the assay on MDA-MB-231 breast; over 100 µM in the assay with CAKI-1 renal; over 100 µM with HCT-15 colon; 59.7 µM with MCF7 breast; over 100 µM in the assay with NCI-H522 lung. In addition, the TGI in the assay on HL-60(TB) leukemia was 98.6 µM; in the assay on EKVX NSCLC it was over 100 µM; in the assay on OVCAR-5 ovarian it was over 100 µM; in the assay on RPMI-8226 leukemia, over 100 µM; in the assay with 786-0 renal it was over 100 µM; in the assay with LOX IMVI melanoma, over 100 µM. The TGI in the assay on DU-145 prostate is over 100 µM; in the assay on SK-MEL-2 melanoma, 78.5 µM; with UACC-62 melanoma, over 100 µM.

`CC(C)(C)OC(=O)CCC1NC(=O)[C@@H]2Cc3c([nH]c4ccccc34)C(c3ccccc3)N2C1=O` (stereo partly specified): the TGI is 42.1 µM with MDA-MB-231 breast; 75.8 µM with CAKI-1 renal; 90.5 µM in the assay with HCT-15 colon; over 100 µM in the assay with MCF7 breast; 54.1 µM with NCI-H522 lung; 50.1 µM with UACC-257 melanoma. The TGI in the assay with HL-60(TB) leukemia was 51.2 µM; in the assay on EKVX NSCLC, over 100 µM; with OVCAR-5 ovarian, 70.2 µM; with RPMI-8226 leukemia it was over 100 µM; in the assay with 786-0 renal, over 100 µM; with LOX IMVI melanoma, 36.3 µM. In addition, the TGI was over 100 µM in the assay on DU-145 prostate, 43.2 µM in the assay on SK-MEL-2 melanoma and 35.7 µM with UACC-62 melanoma.

As for `Cc1cc(C)c2c(=O)cc(-c3ccccc3)[nH]c2c1`, the TGI with SF-539 CNS is 8.11 µM; in the assay with MDA-MB-231 breast it was 39.7 µM; with CAKI-1 renal, over 47.2 µM; in the assay with HCT-15 colon, over 67.1 µM; in the assay with MCF7 breast it was 22.2 µM; in the assay with NCI-H522 lung, 7.29 µM. Moreover, the TGI was over 100 µM in the assay on UACC-257 melanoma; 4.71 µM in the assay on HL-60(TB) leukemia; 42.8 µM with EKVX NSCLC; over 92.3 µM with OVCAR-5 ovarian; 22.8 µM with RPMI-8226 leukemia; 11.4 µM with 786-0 renal. The TGI was 41.2 µM in the assay with LOX IMVI melanoma; 31.2 µM with NCI-H460 lung; 98.4 µM with DU-145 prostate; 55.9 µM with SK-MEL-2 melanoma; 28.7 µM in the assay with UACC-62 melanoma.

Regarding `CC1(C)CC(=O)c2c(nc3c(ccc4ccccc43)c2-c2ccc(NC(=O)CCCCCCCCC(=O)Nc3ccc(-c4c5c(nc6c4ccc4ccccc46)CC(C)(C)CC5=O)cc3)cc2)C1`, the TGI in the assay on SF-539 CNS, with MDA-MB-231 breast, in the assay with CAKI-1 renal, with MCF7 breast, in the assay with NCI-H522 lung and with UACC-257 melanoma was over 100 µM each time. Besides, the TGI in the assay with HL-60(TB) leukemia, in the assay with EKVX NSCLC, in the assay on OVCAR-5 ovarian, in the assay on RPMI-8226 leukemia, in the assay with 786-0 renal and in the assay with LOX IMVI melanoma was over 100 µM throughout. Besides, the TGI in the assay with NCI-H460 lung, in the assay with DU-145 prostate and in the assay with SK-MEL-2 melanoma was over 100 µM throughout.

With `NC(=S)Nc1c(S(N)(=O)=O)cc(S(N)(=O)=O)c(Cl)c1Cl`, the TGI with SF-539 CNS, in the assay with MDA-MB-231 breast, in the assay with CAKI-1 renal, with HCT-15 colon, with MCF7 breast and in the assay with NCI-H522 lung was over 100 µM in each case. Besides, the TGI in the assay on UACC-257 melanoma, in the assay with HL-60(TB) leukemia, with EKVX NSCLC, with OVCAR-5 ovarian, with RPMI-8226 leukemia and in the assay on 786-0 renal was over 100 µM in each case. In addition, the TGI in the assay on LOX IMVI melanoma, in the assay on DU-145 prostate, in the assay with SK-MEL-2 melanoma and in the assay on UACC-62 melanoma was over 100 µM each time.

In the case of `CC(=O)c1cc2sc3ccccc3c2[nH]1`, the TGI with SF-539 CNS, in the assay on MDA-MB-231 breast, in the assay on HCC-2998 colon, in the assay on CAKI-1 renal, in the assay with HCT-15 colon and in the assay on MCF7 breast was over 100 µM throughout. The TGI with NCI-H522 lung, with OVCAR-5 ovarian, in the assay on RPMI-8226 leukemia, with 786-0 renal, with NCI-H460 lung and in the assay on DU-145 prostate was over 100 µM in each case. Further, the TGI with SK-MEL-2 melanoma and in the assay on UACC-62 melanoma was over 100 µM each time.
